In the kinase profiling compilation of Christmann-Franck et al. (2016):

How the values were obtained:
Test in all cases: radiometric filter-binding kinase assay, Kinase HotSpot
Conditions in all cases: compound 0.5 µM; ATP 10 µM
CDK7 CCNH MNAT1 (human) = CDK7 CCNH MNAT1 (human) (UniProt P50613+P51948+P51946)
SRC (human) = SRC (human) (UniProt P12931)
MET (human) = MET (human) (UniProt P08581)
MAP4K2 (human) = MAP4K2 (human) (UniProt Q12851)
MUSK (human) = MUSK (human) (UniProt O15146)
CSNK1E (human) = CSNK1E (human) (UniProt P49674)
AKT2 (human) = AKT2 (human) (UniProt P31751)
MAPKAPK3 (human) = MAPKAPK3 (human) (UniProt Q16644)
TSSK1B (human) = TSSK1B (human) (UniProt Q9BXA7)
CLK4 (human) = CLK4 (human) (UniProt Q9HAZ1)
PAK7 (human) = PAK7 (human) (UniProt Q9P286)
TAOK2 (human) = TAOK2 (human) (UniProt Q9UL54)
ULK1 (human) = ULK1 (human) (UniProt O75385)
LCK (human) = LCK (human) (UniProt P06239)
PRKCB2 (human) = PRKCB2 (human) (UniProt P05771)
STK24 (human) = STK24 (human) (UniProt Q9Y6E0)
PASK (human) = PASK (human) (UniProt Q96RG2)
RPS6KB1 (human) = RPS6KB1 (human) (UniProt P23443)
LTK (human) = LTK (human) (UniProt P29376)
PRKCD (human) = PRKCD (human) (UniProt Q05655)
CDK4 CCND3 (human) = CDK4 CCND3 (human) (UniProt P30281+P11802)
FER (human) = FER (human) (UniProt P16591)
CDK1 CCNA2 (human) = CDK1 CCNA2 (human) (UniProt P06493+P20248)
MAPK8 (human) = MAPK8 (human) (UniProt P45983)
MAPK12 (human) = MAPK12 (human) (UniProt P53778)
IGF1R (human) = IGF1R (human) (UniProt P08069)
STK16 (human) = STK16 (human) (UniProt O75716)
PTK2B (human) = PTK2B (human) (UniProt Q14289)
STK39 (human) = STK39 (human) (UniProt Q9UEW8)
AXL (human) = AXL (human) (UniProt P30530)
PAK1 (human) = PAK1 (human) (UniProt Q13153)
OXSR1 (human) = OXSR1 (human) (UniProt O95747)
BRAF (human) = BRAF (human) (UniProt P15056)
MAP3K11 (human) = MAP3K11 (human) (UniProt Q16584)
PRKX (human) = PRKX (human) (UniProt P51817)

Sequence of PAK7 (human) (Q9P286 whole entry, looked up): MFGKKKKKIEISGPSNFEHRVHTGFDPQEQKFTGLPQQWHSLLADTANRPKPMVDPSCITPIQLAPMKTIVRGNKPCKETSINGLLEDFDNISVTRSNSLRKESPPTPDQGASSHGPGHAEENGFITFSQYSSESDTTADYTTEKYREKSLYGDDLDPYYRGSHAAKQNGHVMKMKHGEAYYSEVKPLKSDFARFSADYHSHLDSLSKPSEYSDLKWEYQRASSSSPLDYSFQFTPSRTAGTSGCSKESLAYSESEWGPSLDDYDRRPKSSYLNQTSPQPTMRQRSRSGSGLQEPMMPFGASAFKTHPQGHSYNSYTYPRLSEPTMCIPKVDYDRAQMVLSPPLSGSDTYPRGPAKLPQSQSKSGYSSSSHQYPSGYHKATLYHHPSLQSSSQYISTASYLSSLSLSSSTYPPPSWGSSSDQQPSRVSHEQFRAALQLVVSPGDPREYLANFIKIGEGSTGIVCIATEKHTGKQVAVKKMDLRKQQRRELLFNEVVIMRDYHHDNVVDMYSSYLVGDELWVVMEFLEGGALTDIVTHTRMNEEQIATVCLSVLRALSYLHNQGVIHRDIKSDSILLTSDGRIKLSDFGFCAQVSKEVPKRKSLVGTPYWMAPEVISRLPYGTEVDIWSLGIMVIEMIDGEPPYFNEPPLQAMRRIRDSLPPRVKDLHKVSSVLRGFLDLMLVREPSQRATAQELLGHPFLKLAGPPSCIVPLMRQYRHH
Sequence of TSSK1B (human) (Q9BXA7 whole entry, looked up): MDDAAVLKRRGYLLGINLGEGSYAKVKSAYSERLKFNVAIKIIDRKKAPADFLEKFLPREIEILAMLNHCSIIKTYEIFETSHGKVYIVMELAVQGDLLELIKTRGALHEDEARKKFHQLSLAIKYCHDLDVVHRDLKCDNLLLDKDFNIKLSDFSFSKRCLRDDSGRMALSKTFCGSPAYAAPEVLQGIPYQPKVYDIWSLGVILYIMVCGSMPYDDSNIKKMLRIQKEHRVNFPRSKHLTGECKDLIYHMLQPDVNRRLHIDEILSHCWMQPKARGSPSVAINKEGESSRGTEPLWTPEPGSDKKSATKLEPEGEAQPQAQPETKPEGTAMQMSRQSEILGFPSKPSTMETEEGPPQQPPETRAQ
Sequence of MET (human) (P08581 whole entry, looked up): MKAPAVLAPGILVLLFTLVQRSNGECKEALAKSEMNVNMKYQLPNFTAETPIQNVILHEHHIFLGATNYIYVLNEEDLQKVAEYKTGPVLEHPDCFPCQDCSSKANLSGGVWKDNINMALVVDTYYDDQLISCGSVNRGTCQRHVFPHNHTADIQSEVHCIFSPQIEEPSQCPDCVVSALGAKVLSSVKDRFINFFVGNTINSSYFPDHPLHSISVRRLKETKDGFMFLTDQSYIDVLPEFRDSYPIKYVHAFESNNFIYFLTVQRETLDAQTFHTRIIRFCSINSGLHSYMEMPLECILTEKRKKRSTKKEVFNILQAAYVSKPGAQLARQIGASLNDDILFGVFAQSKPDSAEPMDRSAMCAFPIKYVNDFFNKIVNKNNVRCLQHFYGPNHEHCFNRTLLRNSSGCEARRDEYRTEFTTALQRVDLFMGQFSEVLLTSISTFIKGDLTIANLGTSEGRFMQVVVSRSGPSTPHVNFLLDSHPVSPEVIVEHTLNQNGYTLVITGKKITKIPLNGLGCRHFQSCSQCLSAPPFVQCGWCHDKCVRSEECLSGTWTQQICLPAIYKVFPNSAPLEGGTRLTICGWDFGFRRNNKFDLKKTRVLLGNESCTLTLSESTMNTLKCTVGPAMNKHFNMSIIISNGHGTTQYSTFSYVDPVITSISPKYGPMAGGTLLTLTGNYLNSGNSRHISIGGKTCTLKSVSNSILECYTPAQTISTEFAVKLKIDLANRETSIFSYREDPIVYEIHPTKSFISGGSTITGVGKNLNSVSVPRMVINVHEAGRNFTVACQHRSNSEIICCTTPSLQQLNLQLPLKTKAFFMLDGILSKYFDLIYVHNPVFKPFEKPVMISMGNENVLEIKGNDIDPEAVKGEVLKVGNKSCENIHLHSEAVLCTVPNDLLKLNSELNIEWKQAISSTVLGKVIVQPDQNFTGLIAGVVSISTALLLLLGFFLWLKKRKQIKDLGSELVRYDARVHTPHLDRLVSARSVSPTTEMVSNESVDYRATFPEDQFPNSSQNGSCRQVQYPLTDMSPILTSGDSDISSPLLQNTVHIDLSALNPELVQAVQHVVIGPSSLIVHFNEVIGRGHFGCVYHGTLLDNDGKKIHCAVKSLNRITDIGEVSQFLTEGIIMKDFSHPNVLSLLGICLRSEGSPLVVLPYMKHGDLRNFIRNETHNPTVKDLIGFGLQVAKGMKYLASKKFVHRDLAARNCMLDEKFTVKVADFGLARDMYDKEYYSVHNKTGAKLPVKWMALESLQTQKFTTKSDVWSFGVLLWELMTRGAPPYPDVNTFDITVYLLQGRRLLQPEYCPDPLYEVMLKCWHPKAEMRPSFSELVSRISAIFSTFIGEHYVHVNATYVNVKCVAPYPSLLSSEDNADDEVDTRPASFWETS
Sequence of ULK1 (human) (O75385 whole entry, looked up): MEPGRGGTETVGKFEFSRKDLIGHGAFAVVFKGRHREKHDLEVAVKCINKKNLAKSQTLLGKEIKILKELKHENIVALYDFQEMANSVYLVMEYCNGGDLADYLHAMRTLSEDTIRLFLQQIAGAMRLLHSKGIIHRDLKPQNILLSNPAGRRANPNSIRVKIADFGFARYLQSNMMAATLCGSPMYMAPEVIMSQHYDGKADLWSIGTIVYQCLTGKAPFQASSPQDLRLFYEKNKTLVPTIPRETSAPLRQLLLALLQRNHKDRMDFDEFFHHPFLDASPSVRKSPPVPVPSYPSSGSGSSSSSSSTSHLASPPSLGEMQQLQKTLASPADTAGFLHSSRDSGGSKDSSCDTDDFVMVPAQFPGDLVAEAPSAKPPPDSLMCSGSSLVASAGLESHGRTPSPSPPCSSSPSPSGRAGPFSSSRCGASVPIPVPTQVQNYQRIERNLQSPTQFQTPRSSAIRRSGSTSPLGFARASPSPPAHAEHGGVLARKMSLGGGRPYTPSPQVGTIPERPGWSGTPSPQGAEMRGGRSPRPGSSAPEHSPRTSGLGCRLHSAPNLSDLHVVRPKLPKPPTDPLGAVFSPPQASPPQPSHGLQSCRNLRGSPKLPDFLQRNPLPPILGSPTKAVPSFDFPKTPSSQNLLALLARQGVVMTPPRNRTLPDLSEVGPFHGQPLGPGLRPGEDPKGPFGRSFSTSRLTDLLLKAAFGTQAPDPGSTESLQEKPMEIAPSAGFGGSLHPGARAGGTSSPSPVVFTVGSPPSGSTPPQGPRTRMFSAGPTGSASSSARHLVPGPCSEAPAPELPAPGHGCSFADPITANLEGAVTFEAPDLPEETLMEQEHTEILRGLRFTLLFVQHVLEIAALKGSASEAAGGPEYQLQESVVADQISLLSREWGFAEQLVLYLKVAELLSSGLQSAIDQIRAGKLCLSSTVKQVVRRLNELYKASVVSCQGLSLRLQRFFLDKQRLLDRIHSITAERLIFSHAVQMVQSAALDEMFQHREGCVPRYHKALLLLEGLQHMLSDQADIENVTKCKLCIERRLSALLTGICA
Sequence of MAPKAPK3 (human) (Q16644 whole entry, looked up): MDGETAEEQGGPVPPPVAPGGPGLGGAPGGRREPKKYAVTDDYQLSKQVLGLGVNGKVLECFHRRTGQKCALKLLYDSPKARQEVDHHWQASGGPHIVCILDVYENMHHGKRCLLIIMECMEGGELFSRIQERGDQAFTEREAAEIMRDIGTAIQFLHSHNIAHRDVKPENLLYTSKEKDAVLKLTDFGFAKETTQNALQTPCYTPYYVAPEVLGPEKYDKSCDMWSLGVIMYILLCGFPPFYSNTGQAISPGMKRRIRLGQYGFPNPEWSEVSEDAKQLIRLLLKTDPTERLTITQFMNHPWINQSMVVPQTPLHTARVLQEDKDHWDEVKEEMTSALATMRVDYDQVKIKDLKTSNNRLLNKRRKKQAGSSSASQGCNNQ
Sequence of BRAF (human) (P15056 whole entry, looked up): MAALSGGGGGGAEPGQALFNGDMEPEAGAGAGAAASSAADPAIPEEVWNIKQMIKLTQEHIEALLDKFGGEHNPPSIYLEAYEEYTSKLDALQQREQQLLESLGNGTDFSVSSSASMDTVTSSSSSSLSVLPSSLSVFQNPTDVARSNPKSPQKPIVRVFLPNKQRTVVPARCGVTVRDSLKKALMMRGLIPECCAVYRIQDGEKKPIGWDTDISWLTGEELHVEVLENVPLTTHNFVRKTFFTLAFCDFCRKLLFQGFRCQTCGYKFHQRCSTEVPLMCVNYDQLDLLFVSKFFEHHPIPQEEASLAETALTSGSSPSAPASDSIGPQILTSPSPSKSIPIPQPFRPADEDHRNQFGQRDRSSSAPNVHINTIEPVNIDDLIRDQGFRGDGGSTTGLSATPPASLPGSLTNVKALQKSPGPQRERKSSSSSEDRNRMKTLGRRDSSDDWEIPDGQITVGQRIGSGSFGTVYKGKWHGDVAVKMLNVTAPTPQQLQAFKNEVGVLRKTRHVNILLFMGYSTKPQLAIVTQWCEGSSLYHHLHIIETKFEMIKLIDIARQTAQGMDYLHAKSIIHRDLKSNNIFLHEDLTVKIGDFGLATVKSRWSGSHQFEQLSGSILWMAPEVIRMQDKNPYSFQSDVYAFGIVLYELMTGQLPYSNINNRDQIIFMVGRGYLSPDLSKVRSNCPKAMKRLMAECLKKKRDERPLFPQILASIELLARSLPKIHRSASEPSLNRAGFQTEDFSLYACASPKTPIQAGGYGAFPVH
Sequence of STK16 (human) (O75716 whole entry, looked up): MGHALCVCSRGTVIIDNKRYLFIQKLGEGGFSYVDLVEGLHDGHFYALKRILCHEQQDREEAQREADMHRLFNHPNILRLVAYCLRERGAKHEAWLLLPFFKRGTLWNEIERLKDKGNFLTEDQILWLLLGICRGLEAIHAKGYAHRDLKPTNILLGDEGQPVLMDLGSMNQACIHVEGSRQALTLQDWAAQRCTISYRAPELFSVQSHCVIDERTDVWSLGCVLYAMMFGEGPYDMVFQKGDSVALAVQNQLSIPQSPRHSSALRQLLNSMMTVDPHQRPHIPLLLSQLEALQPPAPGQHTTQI

Compound | residual activity (CDK7 CCNH MNAT1 (human)) | residual activity (MAP4K2 (human)) | residual activity (MUSK (human)) | residual activity (CSNK1E (human)) | residual activity (AKT2 (human)) | residual activity (MAPKAPK3 (human)) | residual activity (TSSK1B (human)) | residual activity (CLK4 (human)) | residual activity (PAK7 (human)) | residual activity (TAOK2 (human)) | residual activity (ULK1 (human)) | residual activity (LCK (human)) | residual activity (PRKCB2 (human)) | residual activity (STK24 (human)) | residual activity (PASK (human)) | residual activity (RPS6KB1 (human)) | residual activity (LTK (human)) | residual activity (PRKCD (human)) | residual activity (FER (human)) | residual activity (MAPK8 (human)) | other results
Cn1cnc2cc3c(Nc4cccc(Br)c4)ncnc3cc21 | 99.5% | 90.4% | 85.3% | 90.3% | 106% | 94.4% | 104% | 88.5% | 86.1% | 103% | 113% | 47.7% | 95.4% | 83.4% | 89.8% | 100% | 77.9% | 91.8% | 90.6% | 96.9% | residual activity (SRC (human)): 81.2%; residual activity (MET (human)): 101%; residual activity (CDK4 CCND3 (human)): 95.9%; residual activity (CDK1 CCNA2 (human)): 95.8%; residual activity (MAPK12 (human)): 92%; residual activity (IGF1R (human)): 102%; residual activity (STK16 (human)): 96.3%; residual activity (PTK2B (human)): 92.7%; residual activity (STK39 (human)): 111%; residual activity (AXL (human)): 101%; residual activity (PAK1 (human)): 91.4%; residual activity (OXSR1 (human)): 94.6%; residual activity (BRAF (human)): 94.2%; residual activity (MAP3K11 (human)): 94.8%; residual activity (PRKX (human)): 101%
O=C(Nc1cccc(Nc2cc(Nc3cccc(C(F)(F)F)c3)ncn2)c1)C1CC1 | 97.6% | 116% | 113% | 98.1% | 103% | 104% | 104% | 97.3% | 97.5% | 103% | 100% | 100% | 107% | 97.1% | 98.3% | 98% | 96.8% | 101% | 102% | 93.4% | residual activity (SRC (human)): 102%; residual activity (MET (human)): 103%; residual activity (CDK4 CCND3 (human)): 105%; residual activity (CDK1 CCNA2 (human)): 97.9%; residual activity (MAPK12 (human)): 89.2%; residual activity (IGF1R (human)): 105%; residual activity (STK16 (human)): 107%; residual activity (PTK2B (human)): 89.6%; residual activity (STK39 (human)): 94.1%; residual activity (AXL (human)): 98.7%; residual activity (PAK1 (human)): 96.6%; residual activity (OXSR1 (human)): 110%; residual activity (BRAF (human)): 96.8%; residual activity (MAP3K11 (human)): 97.7%; residual activity (PRKX (human)): 107%
CC(C)[C@H](CO)Nc1nc(Nc2cc(N)cc(Cl)c2)c2ncn(C(C)C)c2n1 | 54.7% | 90.7% | 46% | 82.7% | 100% | 98.4% | 91.3% | 16.5% | 44.3% | 82.2% | 41.5% | 70.2% | 97.3% | 75.9% | 106% | 95.5% | 103% | 87.6% | 54.9% | 93.4% | residual activity (SRC (human)): 3.75%; residual activity (MET (human)): 109%; residual activity (IGF1R (human)): 73%; residual activity (STK16 (human)): 74%; residual activity (PTK2B (human)): 63.6%; residual activity (STK39 (human)): 83.7%; residual activity (AXL (human)): 93.1%; residual activity (PAK1 (human)): 81.8%; residual activity (OXSR1 (human)): 100%; residual activity (BRAF (human)): 97.5%; residual activity (MAP3K11 (human)): 17.7%; residual activity (PRKX (human)): 101%
Nc1nnc2[nH]c3ccccc3nc1-2 | 98% | 91.7% | 82.6% | 90.2% | 90.1% | 101% | 95.4% | 86.9% | 98.4% | 103% | 106% | 93.6% | 88.5% | 89.1% | 93.7% | 99.8% | 89.4% | 98.3% | 94.4% | 89.6% | residual activity (MET (human)): 90.1%; residual activity (CDK4 CCND3 (human)): 94.8%; residual activity (CDK1 CCNA2 (human)): 95.3%; residual activity (MAPK12 (human)): 100%; residual activity (IGF1R (human)): 97.5%; residual activity (STK16 (human)): 91.9%; residual activity (PTK2B (human)): 92%; residual activity (STK39 (human)): 116%; residual activity (AXL (human)): 91.3%; residual activity (PAK1 (human)): 97.1%; residual activity (OXSR1 (human)): 92.7%; residual activity (BRAF (human)): 102%; residual activity (MAP3K11 (human)): 96.3%; residual activity (PRKX (human)): 102%
O=C1NC(=O)C(c2c[nH]c3ccccc23)=C1c1c[nH]c2ccccc12 | 94.4% | 84.9% | 76.4% | 92.4% | 102% | 90.5% | 106% | 76.1% | 104% | 102% | 105% | 85.1% | 42.9% | 61.5% | 90.8% | 75.6% | 85.1% | 55.5% | 83.5% | 95.1% | residual activity (SRC (human)): 93.7%; residual activity (CDK4 CCND3 (human)): 89.8%; residual activity (CDK1 CCNA2 (human)): 96.3%; residual activity (MAPK12 (human)): 93%; residual activity (IGF1R (human)): 80%; residual activity (STK16 (human)): 94.2%; residual activity (PTK2B (human)): 95.6%; residual activity (STK39 (human)): 93.6%; residual activity (AXL (human)): 103%; residual activity (PAK1 (human)): 83.5%; residual activity (OXSR1 (human)): 86.3%; residual activity (BRAF (human)): 101%; residual activity (MAP3K11 (human)): 68.7%; residual activity (PRKX (human)): 99.5%
COc1ccc(CNC(=O)Nc2ncc([N+](=O)[O-])s2)cc1 | 94.8% | 113% | 115% | 102% | 103% | 103% | 106% | 92.8% | 95.4% | 98.5% | 97.7% | 101% | 103% | 93.6% | 106% | 85.4% | 101% | 100% | 101% | 104% | residual activity (SRC (human)): 101%; residual activity (MET (human)): 85.5%; residual activity (CDK4 CCND3 (human)): 94.4%; residual activity (CDK1 CCNA2 (human)): 93.4%; residual activity (IGF1R (human)): 101%; residual activity (STK16 (human)): 99.9%; residual activity (PTK2B (human)): 83.1%; residual activity (STK39 (human)): 96.4%; residual activity (AXL (human)): 92%; residual activity (PAK1 (human)): 94.2%; residual activity (OXSR1 (human)): 95.9%; residual activity (BRAF (human)): 93.4%; residual activity (MAP3K11 (human)): 101%; residual activity (PRKX (human)): 72.1%
